The record followed here is ChEMBL document CHEMBL3046890, “Synthesis and Herbicidal Activity of Sulfonylureas; SL-950 and Its Related Compounds” (1995).

Holding throughout (type): functional
What all share (conditions): read-out: GI

Assay [1] deals with Zea mays. Kind of assay: Post emergence phyototoxic activity against Zea mays (maize) plants assessed as inhibition of plant growth at 125 g ai/ha measured 22 to 37 days after compound application under greenhouse conditions.
The test system of assay [2] is Persicaria longiseta. Nature of the assay: Post-emergence herbicidal activity against Persicaria longiseta assessed as inhibition of weed growth at 125 g ai/ha measured 22 to 37 days after compound application under greenhouse conditions.
Assay [3] concerns Amaranthus viridis. Kind of assay: Post-emergence herbicidal activity against Amaranthus viridis assessed as inhibition of weed growth at 125 g ai/ha measured 22 to 37 days after compound application under greenhouse conditions.
The test system of assay [4] is Xanthium strumarium. Nature of the assay: Post emergence herbicidal activity against Xanthium strumarium (cocklebur) assessed as inhibition of weed growth at 125 g ai/ha measured 22 to 37 days after compound application under greenhouse conditions.
In assay [5] the test system is Sida spinosa. Kind of assay: Post-emergence herbicidal activity against Sida spinosa assessed as inhibition of weed growth at 125 g ai/ha measured 22 to 37 days after compound application under greenhouse conditions.
Assay [6] deals with Echinochloa crus-galli. Nature of the assay: Post emergence herbicidal activity against Echinochloa crus-galli (barnyard grass) assessed as inhibition of weed growth at 125 g ai/ha measured 22 to 37 days after compound application under greenhouse conditions.
Assay [7] concerns Triticum aestivum. Nature of the assay: Post emergence phyototoxic activity against Triticum aestivum (wheat) plants assessed as inhibition of plant growth at 125 g ai/ha measured 22 to 37 days after compound application under greenhouse conditions.
For assay [8], the system named is Ipomoea purpurea. Nature of the assay: Post emergence herbicidal activity against Ipomoea purpurea (common morning-glory) assessed as inhibition of weed growth at 125 g ai/ha measured 22 to 37 days after compound application under greenhouse conditions.

For `CSc1cc(SC)nc(NC(=O)NS(=O)(=O)c2ncccc2C(=O)N(C)C)n1`, the inhibition of growth at 125 g/ha in assay [1], in assay [2], in assay [3], in assay [4], in assay [5] and in assay [6] was 0% throughout.
For the compound `COc1nc(C)nc(NC(=O)NS(=O)(=O)c2ncccc2C(=O)N(C)C)n1`, the inhibition of growth at 125 g/ha in assay [7], in assay [1], in assay [5], in assay [8] and in assay [6] was 0% throughout.
As to `COc1nc(NC(=O)NS(=O)(=O)c2ncccc2C(=O)N(C)C)nc(OC)n1`, the inhibition of growth at 125 g/ha in assay [7], in assay [1], in assay [2], in assay [3], in assay [5] and in assay [8] was 0% each time. For the same compound, the inhibition of growth at 125 g/ha in assay [6] was 0%.
Take `CN(C)C(=O)c1cccnc1S(=O)(=O)NC(=O)Nc1nc(OC(F)F)cc(OC(F)F)n1`: the inhibition of growth at 125 g/ha in assay [7], in assay [2], in assay [4] and in assay [5] was 0% in each case.
On to `COc1cc(SC)nc(NC(=O)NS(=O)(=O)c2ncccc2C(=O)N(C)C)n1`, for which the inhibition of growth at 125 g/ha in assay [1] came to 0%; in assay [3], 100%.
Consider `COc1cc(OC(F)F)nc(NC(=O)NS(=O)(=O)c2ncccc2C(=O)N(C)C)n1`, for which the inhibition of growth at 125 g/ha in assay [1] is 0%.
As for `COc1cc(Cl)nc(NC(=O)NS(=O)(=O)c2ncccc2C(=O)N(C)C)n1`, the inhibition of growth at 125 g/ha in assay [1] and in assay [5] was 0% throughout.
In the case of `CCOc1cc(OC)nc(NC(=O)NS(=O)(=O)c2ncccc2C(=O)N(C)C)n1`, the inhibition of growth at 125 g/ha in assay [1] was 0%; in assay [3], 100%.
`COc1cc(C)nc(NC(=O)NS(=O)(=O)c2ncccc2C(=O)N(C)C)n1`: in assay [1], the inhibition of growth at 125 g/ha came out at 0%.
In the case of `Cc1cc(C)nc(NC(=O)NS(=O)(=O)c2ncccc2C(=O)N(C)C)n1`, the inhibition of growth at 125 g/ha in assay [7], in assay [1], in assay [2], in assay [5], in assay [8] and in assay [6] was 0% in each case.
Consider `COc1cc(OC)nc(NC(=O)NS(=O)(=O)c2ncccc2C(=O)N2CCOCC2)n1`, for which the inhibition of growth at 125 g/ha in assay [7] and in assay [1] was 0% each time.
On to `COc1cc(OC)nc(NC(=O)NS(=O)(=O)c2ncccc2C(=O)N2CCCCC2)n1`, for which, in assay [1], the inhibition of growth at 125 g/ha is 0%.
With `CCC(=O)N(CC)C(=O)c1cccnc1S(=O)(=O)NC(=O)Nc1nc(OC)cc(OC)n1`, the inhibition of growth at 125 g/ha in assay [1] was found to be 0%; in assay [3] it was 100%.
On to `COc1cc(OC)nc(NC(=O)NS(=O)(=O)c2ncccc2C(=O)N(C)c2ccc(F)cc2F)n1`, for which the results for the inhibition of growth at 125 g/ha in assay [7] and in assay [5] were 100% and 0%, respectively.
On to `COc1cc(OC)nc(NC(=O)NS(=O)(=O)c2ncccc2C(=O)NC2CC2)n1`, for which the inhibition of growth at 125 g/ha in assay [1] was determined as 0%; in assay [6], 100%.
For the compound `CCCCNC(=O)c1cccnc1S(=O)(=O)NC(=O)Nc1nc(OC)cc(OC)n1`, in assay [1], the inhibition of growth at 125 g/ha came to 0%.
For `COC(=O)CNC(=O)c1cccnc1S(=O)(=O)NC(=O)Nc1nc(OC)cc(OC)n1`, the inhibition of growth at 125 g/ha in assay [7], in assay [1], in assay [3], in assay [5], in assay [8] and in assay [6] was 0% in each case.
As to `CCN(C)C(=O)c1cccnc1S(=O)(=O)NC(=O)Nc1nc(OC)cc(OC)n1`, the inhibition of growth at 125 g/ha in assay [1] is 0%; in assay [4] it was 100%; in assay [6] it was 100%.
For `COc1cc(OC)nc(NC(=O)NS(=O)(=O)c2ncccc2C(=O)N(C)CC(F)(F)F)n1`, in assay [1], the inhibition of growth at 125 g/ha came out at 0%.
In the case of `COc1cc(OC)nc(NC(=O)NS(=O)(=O)c2ncccc2C(=O)N(C)OC)n1`, the inhibition of growth at 125 g/ha in assay [7] came to 100%; in assay [1], 0%; in assay [3], 100%; in assay [6], 100%.
Regarding `COC(=O)N(C)C(=O)c1cccnc1S(=O)(=O)NC(=O)Nc1nc(OC)cc(OC)n1`, the inhibition of growth at 125 g/ha in assay [1] worked out at 0%.
Same read-out and setting: in the case of `COc1cc(OC)nc(NC(=O)NS(=O)(=O)c2ncccc2C(=O)N(C)c2ccccc2)n1` it was 0%.
Regarding `COc1cc(OC)nc(NC(=O)NS(=O)(=O)c2ncccc2C(=O)N(C)c2ccc(Cl)cc2)n1`, the inhibition of growth at 125 g/ha in assay [1] came out at 0%; in assay [4] it was 100%.
`C=CCNC(=O)c1cccnc1S(=O)(=O)NC(=O)Nc1nc(OC)cc(OC)n1`: the inhibition of growth at 125 g/ha in assay [1] is 0%.
For `C=C(C)NC(=O)c1cccnc1S(=O)(=O)NC(=O)Nc1nc(OC)cc(OC)n1`, the inhibition of growth at 125 g/ha in assay [1] turned out to be 0%.
Still for that read-out and setting: in the case of `COc1cc(OC)nc(NC(=O)NS(=O)(=O)c2ncccc2C(=O)NCC(F)(F)F)n1` it was 0%; in that of `CCNC(=O)c1cccnc1S(=O)(=O)NC(=O)Nc1nc(OC)cc(OC)n1`, 0%.
Consider `CNC(=O)c1cccnc1S(=O)(=O)NC(=O)Nc1nc(OC)cc(OC)n1`, for which the inhibition of growth at 125 g/ha in assay [1] was 0%; in assay [2] it was 100%; in assay [3], 100%; in assay [4] it was 100%; in assay [6], 100%.
